Measured values taken from patent US20020137929A1, “1 - (3-heterocyclylphenyl) isothiourea, -isourea, -guanidine and -amidine herbicidal agents” (Intellectual Property Department, BASF Aktiengesellschaft, priority 1998, published 2002).

What was measured:
[1] = test system: ABUTH (Velvetleaf); test: Postemergence herbicidal evaluation; assay type: in vivo, Abutilon theophrasti; details: postemergence
How it was run: (§1)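 Each compound, dispersed in an acetone/water mix (50/50) carrying 0.5% TWEEN 20, is nozzle-sprayed at 40 psi on approximately two-week-old seedlings at about 0.0156–0.500 kg/ha. Plants are assessed 4–5 weeks afterward on a 0–9 scale relative to control; duplicate tests are averaged.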

[2] = test system: IPOHE (Morningglory, Ivyleaf); test: Postemergence herbicidal evaluation; assay type: in vivo, Ipomoea hederacea; details: postemergence
How it was run: as §1

[3] = test system: TRZAWR (Wheat, Winter, cv Riband); test: Postemergence herbicidal evaluation; assay type: in vivo, Triticum aestivum; details: postemergence
How it was run: as §1

[4] = test system: CHEAL (Lambsquarters, Common); test: Preemergence herbicidal evaluation; assay type: in vivo, Chenopodium album; details: rated 4-5 weeks after treatment
How it was run: (§2)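 Rating at 4–5 wk post-spray on a 0–9 visual scale vs control. Application: aqueous acetone, ~0.0156–0.500 kg/ha, to soil surface after seeding, preemergence.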

[5] = test system: IPOHE (Morningglory, Ivyleaf); test: Preemergence herbicidal evaluation; assay type: in vivo, Ipomoea hederacea; details: rated 4-5 weeks after treatment
How it was run: as §2

[6] = test system: ECHCG (Barnyardgrass); test: Preemergence herbicidal evaluation; assay type: in vivo, Echinochloa crus-galli; details: rated 4-5 weeks after treatment
How it was run: as §2

[7] = test system: SETVI (Foxtail, Green); test: Preemergence herbicidal evaluation; assay type: in vivo, Setaria viridis; details: rated 4-5 weeks after treatment
How it was run: as §2

[8] = test system: ORYSAT (Rice, Tebonnet); test: Preemergence herbicidal evaluation; assay type: in vivo, Oryza sativa, (L.) Tebonnet; details: rated 4-5 weeks after treatment
How it was run: as §2

[9] = test system: TRZAWR (Wheat, Winter, cv Riband); test: Preemergence herbicidal evaluation; assay type: in vivo, Triticum aestivum; details: rated 4-5 weeks after treatment
How it was run: as §2

[10] = test system: ECHORC (Watergrass (Calif.)); test: Preemergence weed control under flooded paddy conditions; assay type: in vivo, Echinochloa oryzoides; details: rated 3-4 weeks after treatment
How it was run: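 Silt loam, seeds in top 0.5 cm; flood held 1.5-3 cm; test cpd as acetone/water 50/50 into flood water, ~0.0313-0.500 kg/ha a.i.; greenhouse 3-4 wk; visual 0-9 score vs control.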

[11] = test system: MOOVA (Monochoria); test: as above; assay type: in vivo, Monochoria vaginalis; details: rated 3-4 weeks after treatment
How it was run: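 Seeds or propagules sown in top 0.5 cm of silt loam soil, flooded 1.5 to 3 cm above surface throughout. Compound in 50/50 v/v aqueous/acetone pipetted into flood water at about 0.0313 to 0.500 kg/ha. Visual 0-9 rating versus control after three to four weeks in greenhouse.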

[12] = test system: ECHORC (Watergrass (Calif.)); test: Postemergence weed control under flooded paddy conditions; assay type: in vivo, Echinochloa oryzoides; details: postemergence weeds, 3-4 weeks after treatment
How it was run: (§3)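 Weeds 3 to 5 cm tall and rice seedlings at the 1.5 to 2.5 leaf stage were flooded, with water held 1.5 to 3 cm above the soil. Compounds in 50/50 v/v aqueous/acetone went into the flood water at about 0.0313 to 0.500 kg/ha. Visual 0-9 ratings versus control were made 3 to 4 weeks later.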

[13] = test system: CYPIR (Rice Flatsedge); test: as above; assay type: in vivo, Cyperus iria; details: postemergence weeds, 3-4 weeks after treatment
How it was run: as §3

CCOC(=O)CN1C(=O)CSC1=Nc1cc(-n2c(=O)cc(C(F)(F)F)n(C)c2=O)c(F)cc1Cl [Compound 8, Ethyl 2-{{2-chloro-5-[3,6-dihydro-3-methyl-2,6-dioxo-4-(trifluoromethyl)-1(2H)pyrimidinyl]-4-fluorophenyl}imino}-4-oxo-3-thiazolidineacetate]
ABUTH herbicidal rating ([1]; rate 0.0157 kg/ha): 9.0 | ABUTH herbicidal rating ([1]; rate 0.0313 kg/ha): 9.0 | ABUTH herbicidal rating ([1]; rate 0.0625 kg/ha): 9.0 | ABUTH herbicidal rating ([1]; rate 0.1250 kg/ha): 9.0 | IPOHE herbicidal rating ([2]; rate 0.0157 kg/ha): 9.0 | IPOHE herbicidal rating ([2]; rate 0.0313 kg/ha): 9.0 | IPOHE herbicidal rating ([2]; rate 0.0625 kg/ha): 9.0 | IPOHE herbicidal rating ([2]; rate 0.1250 kg/ha): 9.0 | TRZAWR herbicidal rating ([3]; rate 0.0157 kg/ha): 3.5 | TRZAWR herbicidal rating ([3]; rate 0.0313 kg/ha): 5.1 | TRZAWR herbicidal rating ([3]; rate 0.0625 kg/ha): 6.4 | TRZAWR herbicidal rating ([3]; rate 0.1250 kg/ha): 6.4 | CHEAL preemergence herbicidal rating ([4]; rate 0.0156 kg/ha): 9.0 | CHEAL preemergence herbicidal rating ([4]; rate 0.0313 kg/ha): 9.0 | CHEAL preemergence herbicidal rating ([4]; rate 0.0625 kg/ha): 9.0 | CHEAL preemergence herbicidal rating ([4]; rate 0.1250 kg/ha): 9.0 | CHEAL preemergence herbicidal rating ([4]; rate 0.2500 kg/ha): 9.0 | CHEAL preemergence herbicidal rating ([4]; rate 0.5000 kg/ha): 9.0 | IPOHE preemergence herbicidal rating ([5]; rate 0.0156 kg/ha): 1.1 | IPOHE preemergence herbicidal rating ([5]; rate 0.0313 kg/ha): 4.4 | IPOHE preemergence herbicidal rating ([5]; rate 0.0625 kg/ha): 6.4 | IPOHE preemergence herbicidal rating ([5]; rate 0.1250 kg/ha): 8.6 | IPOHE preemergence herbicidal rating ([5]; rate 0.2500 kg/ha): 8.6 | IPOHE preemergence herbicidal rating ([5]; rate 0.5000 kg/ha): 9.0 | ECHCG preemergence herbicidal rating ([6]; rate 0.0156 kg/ha): 0.4 | ECHCG preemergence herbicidal rating ([6]; rate 0.0313 kg/ha): 2.2 | ECHCG preemergence herbicidal rating ([6]; rate 0.0625 kg/ha): 4.4 | ECHCG preemergence herbicidal rating ([6]; rate 0.1250 kg/ha): 7.4 | ECHCG preemergence herbicidal rating ([6]; rate 0.2500 kg/ha): 8.9 | ECHCG preemergence herbicidal rating ([6]; rate 0.5000 kg/ha): 9.0 | SETVI preemergence herbicidal rating ([7]; rate 0.0156 kg/ha): 2.8 | SETVI preemergence herbicidal rating ([7]; rate 0.0313 kg/ha): 6.1 | SETVI preemergence herbicidal rating ([7]; rate 0.0625 kg/ha): 8.2 | SETVI preemergence herbicidal rating ([7]; rate 0.1250 kg/ha): 9.0 | SETVI preemergence herbicidal rating ([7]; rate 0.2500 kg/ha): 9.0 | SETVI preemergence herbicidal rating ([7]; rate 0.5000 kg/ha): 9.0 | ORYSAT preemergence herbicidal rating ([8]; rate 0.0156 kg/ha): 0.6 | ORYSAT preemergence herbicidal rating ([8]; rate 0.0313 kg/ha): 0.8 | ORYSAT preemergence herbicidal rating ([8]; rate 0.0625 kg/ha): 2.8 | ORYSAT preemergence herbicidal rating ([8]; rate 0.1250 kg/ha): 5.4 | ORYSAT preemergence herbicidal rating ([8]; rate 0.2500 kg/ha): 7.1 | ORYSAT preemergence herbicidal rating ([8]; rate 0.5000 kg/ha): 8.5 | TRZAWR preemergence herbicidal rating ([9]; rate 0.0156 kg/ha): 0.2 | TRZAWR preemergence herbicidal rating ([9]; rate 0.0313 kg/ha): 0.8 | TRZAWR preemergence herbicidal rating ([9]; rate 0.0625 kg/ha): 2.8 | TRZAWR preemergence herbicidal rating ([9]; rate 0.1250 kg/ha): 5.5 | TRZAWR preemergence herbicidal rating ([9]; rate 0.2500 kg/ha): 7.2 | TRZAWR preemergence herbicidal rating ([9]; rate 0.5000 kg/ha): 7.8 | Herbicidal rating ECHORC ([10]; 0.0313 kg/ha): 6.5 | Herbicidal rating ECHORC ([10]; 0.0625 kg/ha): 6.5 | Herbicidal rating ECHORC ([10]; 0.1250 kg/ha): 7.5 | Herbicidal rating ECHORC ([10]; 0.2500 kg/ha): 8.5 | Herbicidal rating MOOVA ([11]; 0.0313 kg/ha): 9.0 | Herbicidal rating MOOVA ([11]; 0.0625 kg/ha): 9.0 | Herbicidal rating MOOVA ([11]; 0.1250 kg/ha): 9.0 | Herbicidal rating MOOVA ([11]; 0.2500 kg/ha): 9.0 | Herbicidal rating ECHORC ([12]; rate 0.0313 kg/ha): 6.5 | Herbicidal rating ECHORC ([12]; rate 0.0625 kg/ha): 6.5 | Herbicidal rating ECHORC ([12]; rate 0.1250 kg/ha): 7.5 | Herbicidal rating ECHORC ([12]; rate 0.2500 kg/ha): 8.5 | Herbicidal rating CYPIR ([13]; rate 0.0313 kg/ha): 0.0 | Herbicidal rating CYPIR ([13]; rate 0.0625 kg/ha): 0.0 | Herbicidal rating CYPIR ([13]; rate 0.1250 kg/ha): 0.0 | Herbicidal rating CYPIR ([13]; rate 0.2500 kg/ha): 4.0
